Laboratory results taken from PubChem BioAssay (NCI).
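Exposure lasted 48 hours, with cells grown in 96-well plates and compounds tested at five concentrations. GI50 = concentration required for 50% inhibition of growth. TGI denotes the concentration required for complete inhibition of growth.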

Key:
Assay in all cases: growth of human tumour cells (NCI), 48 h
MOLT-4 leukemia = system: MOLT-4 leukemia
CCRF-CEM leukemia = system: CCRF-CEM leukemia
IGROV1 ovarian = system: IGROV1 ovarian
SK-MEL-5 melanoma = system: SK-MEL-5 melanoma
HOP-92 NSCLC = system: HOP-92 NSCLC
RPMI-8226 leukemia = system: RPMI-8226 leukemia
COLO 205 colon = system: COLO 205 colon
K-562 leukemia = system: K-562 leukemia
OVCAR-4 ovarian = system: OVCAR-4 ovarian
SNB-75 CNS = system: SNB-75 CNS

SMILES	GI50 (MOLT-4 leukemia)	TGI (MOLT-4 leukemia)	GI50 (CCRF-CEM leukemia)	TGI (CCRF-CEM leukemia)	GI50 (IGROV1 ovarian)	TGI (IGROV1 ovarian)	GI50 (SK-MEL-5 melanoma)	TGI (SK-MEL-5 melanoma)	GI50 (HOP-92 NSCLC)	TGI (HOP-92 NSCLC)	GI50 (RPMI-8226 leukemia)	TGI (RPMI-8226 leukemia)	GI50 (COLO 205 colon)	TGI (COLO 205 colon)	GI50 (K-562 leukemia)	TGI (K-562 leukemia)	GI50 (OVCAR-4 ovarian)	TGI (OVCAR-4 ovarian)	GI50 (SNB-75 CNS)	TGI (SNB-75 CNS)
Cc1ccccc1NC(=O)c1sc2nc3c(cc2c1N)C(=O)CCC3	11.3 µM	> 100 µM	2.55 µM	> 100 µM	5.26 µM	> 100 µM	0.613 µM	11.6 µM	> 100 µM	> 100 µM	5.29 µM	> 100 µM	2.13 µM	6.69 µM	0.771 µM	> 100 µM	6.21 µM	> 100 µM	1.66 µM	> 100 µM
Cc1ccc(-n2c(-c3ccc(Cl)cc3)cs/c2=N\NC(=O)COc2n[nH]c(=O)c3ccccc23)cc1	> 100 µM	> 100 µM	> 100 µM	> 100 µM	> 100 µM	> 100 µM	> 100 µM	> 100 µM	34.6 µM	> 100 µM	> 100 µM	> 100 µM	> 100 µM	> 100 µM	> 100 µM	> 100 µM	> 100 µM	> 100 µM	20.7 µM	65.9 µM
COc1cccc2c1C(=O)c1c(O)c3c(c(O)c1C2=O)C[C@@](O)(/C(C)=N\O)C[C@@H]3OC1CC(N)C(O)C(C)O1 (stereo not given in full)		1.55 µM		2.38 µM		17.2 µM		2.29 µM		7.31 µM		8.33 µM		3.56 µM		7.72 µM		17.3 µM		2.54 µM
C[C@@]12CCC[C@@](C)(C(=O)O)C1CC[C@@]13CC(=O)[C@@](CO)(CCC12)C3 (stereo not given in full)	> 100 µM	> 100 µM	> 100 µM	> 100 µM	> 100 µM	> 100 µM	> 100 µM	> 100 µM	> 100 µM	> 100 µM	> 100 µM	> 100 µM	> 100 µM	> 100 µM	> 100 µM	> 100 µM	> 100 µM	> 100 µM	> 100 µM	> 100 µM
CS(=O)(=O)CS(=O)CS(=O)CS(=O)CC(NC(=O)CCC(N)C(=O)O)C(=O)O (stereo not given)		> 100 µM		> 100 µM		> 100 µM		> 100 µM		> 100 µM		> 100 µM		> 100 µM		> 100 µM		> 100 µM		> 100 µM
COC(=O)[C@]12CC[C@@H](C)[C@H](C)[C@@H]1C1=CC[C@@H]3[C@@]4(C)C=C(O)C(=O)C(C)=C4CC[C@@]3(C)[C@]1(C)CC2	4.71 µM	20.7 µM	5.26 µM	23.4 µM	13.4 µM	36.5 µM	15.4 µM	28.8 µM	11.6 µM	26.2 µM	8.62 µM	32.8 µM	12.5 µM	30.1 µM	14.3 µM	39.2 µM	11.9 µM	26.3 µM	13.9 µM	31.3 µM
N#CC(=S)Nc1ccc(F)cc1		> 100 µM		54.9 µM		> 100 µM		75.8 µM		68.3 µM		41.6 µM		> 100 µM		> 100 µM		> 100 µM		> 100 µM
Cc1ccc([Se][Se]c2ccc(C)cc2)cc1		> 100 µM		19.7 µM		> 100 µM		39.6 µM		22.3 µM		31.8 µM		> 100 µM		28 µM		36.9 µM		42.2 µM
C=C1CO[C@@H]2C[C@@H]1CCC1(C)OC1CC/C(C)=C/CC[C@@]2(C)O (stereo not given in full)	17.1 µM	39.1 µM	15.1 µM	38.1 µM	16.3 µM	32 µM	15.4 µM	29.4 µM	36.4 µM	> 100 µM	16.2 µM	44.5 µM	34.4 µM	> 87.2 µM	0.302 µM	7.02 µM	20.9 µM	59.6 µM	21.7 µM	97.4 µM
O=C(CC(=O)c1ccccc1NC1=Cc2ccccc2C(=O)C1=O)C(=O)NC1=C(Cl)C(=O)c2ccccc2C1=O		18 µM		33.6 µM		17.6 µM		2.05 µM		17.9 µM		14.5 µM		31 µM		9.7 µM		15.1 µM		3.19 µM
O=C1C=C(Nc2nc(C(=O)O)cc(=O)[nH]2)c2ccccc2C1=O		> 100 µM		> 100 µM		> 100 µM		> 100 µM		> 100 µM		> 100 µM		> 100 µM		> 100 µM		> 100 µM		> 100 µM
CC1(C)CC[C@]2(C(=O)O)CC[C@]3(C)[C@H](CC[C@@H]4[C@@]5(C)CCC(=O)C(C)(C)[C@@H]5CC[C@]43C)[C@H]2[C@H]1OC(=O)C(F)(F)F	4.22 µM	22.5 µM	9.51 µM	41.5 µM	18.9 µM	40.5 µM	8.11 µM	20.6 µM	8.08 µM	22.6 µM	4.82 µM	30.9 µM	6.58 µM	23.6 µM	3.61 µM	20.9 µM	13.1 µM	29.8 µM	26.4 µM	> 100 µM
CCOC(=O)c1cnc2c(cnn2CC)c1NN=C(C)C	64.7 µM	> 100 µM	78.3 µM	> 100 µM	38.3 µM	> 100 µM	33.1 µM	> 100 µM	25.3 µM	> 100 µM	74.2 µM	> 100 µM	58.7 µM	> 100 µM	59.6 µM	> 100 µM	94.6 µM	> 100 µM	36.6 µM	> 100 µM
Nc1nc(Nc2ccc3c(c2)CCC(N2CCCC2)CC3)nn1-c1cc2c(nn1)-c1ccccc1CCC2 (stereo not given)	0.681 µM	2.86 µM	1.24 µM	4.67 µM	0.455 µM	1.81 µM	1.45 µM	2.78 µM	0.234 µM	1.69 µM	1.4 µM	3.81 µM	1.56 µM	3.11 µM	0.701 µM	2.48 µM	1.15 µM	2.56 µM	0.792 µM	2.18 µM
Cc1nc2ccc(NCCN(C)C)c3c(=O)c4cc(O)ccc4n1c23		0.904 µM		2.5 µM		9.46 µM		10.5 µM		6.96 µM		6.23 µM		2.3 µM		4.25 µM		3.38 µM		5.63 µM
CC1=C(c2cc(C(=O)Nc3cccc(C(F)(F)F)c3)nc(NC#N)n2)Sc2ccccc2N1		> 100 µM		> 100 µM		> 100 µM		> 100 µM		> 100 µM		> 100 µM		> 100 µM		> 100 µM		> 100 µM		> 100 µM
COC(=O)c1cc2c(cc1Cl)SC(N(N(C)C)S(=O)(=O)c1ccc(Cl)cc1)=NS2(=O)=O	11.8 µM	27.5 µM	14.1 µM	37.1 µM	22.5 µM	73.6 µM	14.6 µM	27.7 µM	14.5 µM	30.9 µM	17.1 µM	53.4 µM	13.4 µM	29.8 µM	11.3 µM	23.8 µM	18.1 µM	54.8 µM	23.7 µM	69.9 µM
CN1CCN(c2cc(Nc3cc(C4CC4)[nH]n3)nc(Nc3ccc(CC(=O)NCc4cccc(F)c4)cc3)n2)CC1	0.248 µM	19.8 µM	0.0495 µM	7.49 µM	0.237 µM	2.97 µM	1.42 µM	3.08 µM	0.288 µM	4.8 µM	2 µM	6.52 µM	0.0713 µM	0.607 µM	0.423 µM	11.6 µM	1.55 µM	22 µM	0.168 µM	0.778 µM
c1ccc2c(c1)ccc1c3ccccc3ccc21	> 50 µM	> 50 µM	> 50 µM	> 50 µM	> 50 µM	> 50 µM	> 50 µM	> 50 µM	> 50 µM	> 50 µM	> 50 µM	> 50 µM	> 50 µM	> 50 µM	> 50 µM	> 50 µM	> 50 µM	> 50 µM	> 50 µM	> 50 µM
COc1ccc2sc3c(NCCCNCCO)nc4ccccc4c3c(=O)c2c1	1.93 µM	3.81 µM	1.74 µM	4.06 µM	1.33 µM	2.85 µM	1.76 µM	3.18 µM	1.35 µM	6.74 µM	1.71 µM	3.86 µM	1.66 µM	3.65 µM	1.83 µM	4.32 µM	1.94 µM	4.09 µM	1.82 µM	3.34 µM
C=C1C(=O)O[C@H]2[C@H]1CC(=O)/C(C)=C\CC[C@@]1(C)O[C@@H]21	1.12 µg/mL	4.7 µg/mL	0.443 µg/mL	1.4 µg/mL	2.17 µg/mL	5.8 µg/mL	2.99 µg/mL	8.73 µg/mL	1.94 µg/mL	4.32 µg/mL	0.514 µg/mL	1.3 µg/mL	0.755 µg/mL	3.54 µg/mL	0.842 µg/mL	4.15 µg/mL	3.75 µg/mL	8.12 µg/mL	4.93 µg/mL	9.57 µg/mL
